According to patent US9520611B2, “Redox flow battery” (SAMSUNG ELECTRONICS CO., LTD., priority 2013, dated 2016):
Where two headings read alike, the source gives them in different places.

Legend:
[1] = Cyclic voltammetry of organic electrolytic solution; type: physicochemical; conditions: unit inferred; Ag/Ag+ reference electrode (0.3 M AgNO3 in acetonitrile), carbon felt working electrode
Text: For the purpose of measurement of cyclic voltammetry, a cell that includes an Ag/Ag^+ electrode prepared by dissolving 0.3 M AgNO3 in an acetonitrile solvent as a reference electrode, a carbon felt as a working electrode, and platinum as a counter electrode was used.
Referring to FIGS. 2A to 2C, the graphs of an electrolyte including a metal-ligand coordination compound show a reversible oxidation/reduction peak.

[2] = Solubility measurement in a non-aqueous polar solvent; type: physicochemical
Procedure: A density of the solution was measured and calculated in a molar concentration.

[3] = in 50 mL acetonitrile and propylene carbonate 1:1, calculated in a molar concentration, unit not given

Row | Molecule | E^0 [1] | Solubility [2] | Solubility [2, 3] | Solubility compared with the compounds that include identical ligands (dipole moment sum 0) [2]
1 | O=S(=O)([N-]S(=O)(=O)C(F)(F)F)C(F)(F)F.O=S(=O)([N-]S(=O)(=O)C(F)(F)F)C(F)(F)F.O=[N+]([O-])c1cc2cccnc2c2ncccc12.[Fe+2].c1ccc(-c2ccccn2)nc1.c1ccc(-c2ccccn2)nc1 [Preparation Example 2, Fe^2+-(5-NO2-phenanthroline)(bpy)2 [TFSI]2] | 0.72 V |  |  | 
2 | Cc1ccnc(-c2cc(C)ccn2)c1.Cc1ccnc(-c2cc(C)ccn2)c1.Cc1ccnc(-c2cc(C)ccn2)c1.O=S(=O)([N-]S(=O)(=O)C(F)(F)F)C(F)(F)F.O=S(=O)([N-]S(=O)(=O)C(F)(F)F)C(F)(F)F.[Fe+2] [Preparation Example 5, Fe^2+-(4,4′-diMe-bpy)3 [TFSI]2] | 0.43 V | 0.65 |  | 
3 | O=S(=O)([N-]S(=O)(=O)C(F)(F)F)C(F)(F)F.O=S(=O)([N-]S(=O)(=O)C(F)(F)F)C(F)(F)F.[Fe+2].c1ccc(-c2ccccn2)nc1.c1ccc(-c2ccccn2)nc1.c1ccc(-c2ccccn2)nc1 [Preparation Example 4, Fe^2+-(bpy)3 [TFSI]2] | 0.68 V |  |  | 
4 | Clc1cc(-c2ccccn2)nc(-c2ccccn2)c1.Clc1cc(-c2ccccn2)nc(-c2ccccn2)c1.O=S(=O)([N-]S(=O)(=O)C(F)(F)F)C(F)(F)F.O=S(=O)([N-]S(=O)(=O)C(F)(F)F)C(F)(F)F.[Fe+2] [Preparation Example 8, Fe^2+-(4′-chloro-terpy)2 [TFSI]2] | 0.78 V |  | 0.75 | 
5 | Clc1cc(-c2ccccn2)nc(-c2ccccn2)c1.O=S(=O)([N-]S(=O)(=O)C(F)(F)F)C(F)(F)F.O=S(=O)([N-]S(=O)(=O)C(F)(F)F)C(F)(F)F.[Fe+2].c1ccc(-c2cccc(-c3ccccn3)n2)nc1 [Preparation Example 3, Fe^2+-(terpy)(4′-chloro-terpy) [TFSI]2] | 0.72 V | 1.33 |  | higher solubility
6 | Fe^2+-(NO2-phenanthroline)3 [TFSI]2 [Preparation Example 6] | 0.88 V | 1020 mM |  | 
7 | O=S(=O)([N-]S(=O)(=O)C(F)(F)F)C(F)(F)F.O=S(=O)([N-]S(=O)(=O)C(F)(F)F)C(F)(F)F.[Fe+2].c1ccc(-c2cccc(-c3ccccn3)n2)nc1.c1ccc(-c2cccc(-c3ccccn3)n2)nc1 [Preparation Example 7, Fe^2+-(terpy)2 [TFSI]2] | 0.7 V |  | 1.20 | 
8 | Cc1ccnc(-c2cc(C)ccn2)c1.Cc1ccnc(-c2cc(C)ccn2)c1.O=S(=O)([N-]S(=O)(=O)C(F)(F)F)C(F)(F)F.O=S(=O)([N-]S(=O)(=O)C(F)(F)F)C(F)(F)F.[Fe+2].c1ccc(-c2ccccn2)nc1 [Preparation Example 1, Fe^2+-(4,4′-diMebpy)2 (bpy) [TFSI]2] | 0.56 V |  |  | 
